{"source": "patent US20250082656A1", "about": "“DOSAGE REGIMENS FOR TREATMENT OF DENGUE INFECTION” (Atea Pharmaceuticals, Inc., priority 2022, published 2025)", "key": {"[1]": {"assay": "Plasma stability, human plasma", "conditions": "2 μM, 37° C."}, "[2]": {"conditions": "SD rat plasma"}, "[3]": {"assay": "Plasma stability, cynomolgus monkey plasma", "conditions": "2 μM, 37° C."}, "[4]": {"assay": "Pharmacokinetic study in SAD cohorts", "format": "in vivo, human", "conditions": "South/Southeast/East Asian versus mostly Caucasian cohorts, 1000 mg", "experimental": "(§1) Pharmacokinetic measurements for FIGS. 11, 12, 13, 14, and 15 were analyzed using LC-MS/MS according to the protocol described herein. Plasma samples were prepared for MS analysis by adding internal standards and extracting with 20 volumes chilled ACN. After vortex (800 rpm for 10 min) and centrifugation (4,000 rpm, 15 min, 4° C.), the supernatants (25 μL) were diluted with an equal volume of H2O, mixed and spun again. After adding internal standards, the PBMC samples (10^6 cells) were lyzed with 300 μL MeOH/H2O (70:30, v/v) and 40 mM dibutylammonium acetate (DBAA), mixed by vortex and centrifuged (12,000 rpm, 15 min, 4° C.). Aliquots of the supernatants (35 μL) were dried under nitrogen and reconstituted in H2O, then mixed and spun again. […] A binary nonlinear gradient with mobile phases A (0.1% formic acid in water) and B (0.1% formic acid in ACN) were used to elute samples at 0.8 mL/min, with a run time of 5 min. […] A binary nonlinear gradient with mobile phases A (0.001% NHr H2O, 0.18 mM DBAA in H2O) and B (10 mM N,N-dimethyl-hexylamine, 3 mM NH4OAc in ACN/H2O (50.50, v/v)) were used to elute samples at 0.5 mL/min, with a run time of 3 min. Standards in 50% MeOH were used for calibration. […] Internal standards (ISS) as described previously (Good et al., Preclinical evaluation of AT-527, a novel guanosine nucleotide prodrug with potent, pan-genotypic activity against hepatitis C virus. PLos One 15:e02271045) were used to correct for variations in recovery.\n(§2) Data analysis of the pharmacokinetic data generated according to Example 21 and presented in FIGS. 11, 12, 13, 14, and 15 was analyzed according to the procedure described herein. Plasma concentrations of Compound 1 (AT-281), Compound 3 (AT-551) and Compound 6 (AT-273) were subjected to non-compartmental pharmacokinetic analysis using Phoenix WinNonlin software (version 6.3 or above, Pharsight, Mountain View, CA). The linear/log trapezoidal rule was applied in obtaining the PK parameters."}, "[5]": {"assay": "Safety study in humans (SAD and MAD cohorts)", "format": "in vivo, human", "experimental": "Safety assessments including adverse events, standard clinical laboratory tests, vital sign measurements, electrocardiograms, and physical examinations were performed."}, "[6]": {"system": "DENV-2 D2Y98P", "format": "in vivo, AG129 mice"}, "[7]": {"assay": "Plasma PK after single oral dose of AT-752, monkeys", "format": "in vivo, cynomolgus monkeys", "conditions": "monkeys, oral 300 mg/kg or 60 mg/kg", "experimental": "Male cynomolgus monkeys were administered 300 mg/kg Compound 2 (AT-752). Blood samples were collected up to 24 hrs. post dose, plasma separated and analyzed for Compound 1 (AT-281), Compound 3 (AT-551), and Compound 6 (AT-273) by LC-MS/MS. Data are express as mean+/−SD (n=3-5/time point). The x-axis is time post the dose measured in hours and the y-axis is the plasma concentration of the metabolites measured in nanomoles/mL). The experimental procedure is provided in Example 14.\nMale non-naïve cynomolgus monkeys (Hainan Jingang Laboratory Animal Co. Ltd., China), at least 2 kg body weight, were individually housed during the study in stainless steel mesh cages, provided ad libitum access to RO water, fed twice daily (except on the day of dosing when they were fed once) with ˜60 g Certified Monkey Diet each feed (Beijing Vital Keao Feed Co., Ltd., Beijing, China) and given daily treats of fresh fruit. They (n=5) were administered a dose of Compound 2 (AT-752) at 300 mg/kg in 40% PEG400, 10% solutol HS15, 50% 100 mM citrate buffer, pH 4.5 (v/v) by oral gavage, and blood samples (˜0.5 mL) were collected at 1, 2, 4, 8, 12 and 24 h post dose. Plasma was separated at each time point for pharmacokinetics, and stored at −70° C. […] Separately, three monkeys were given an oral dose of Compound 2 (AT-752) as powder in capsules at 60 mg/kg ([…] (AT-281) equivalent dose of 55 mg/kg), and blood samples collected at 12, 24 and 48 h post dose.\nas §1, §2"}, "[8]": {"conditions": "MAD 750 mg BID × 4 days plus one dose Day 5, 6 patients"}, "[9]": {"conditions": "MAD 750 mg TID × 4 days plus one dose Day 5, 6 patients"}, "[10]": {"conditions": "MAD 1000 mg QD × 7 days, 6 patients"}, "[11]": {"conditions": "SAD 1000 mg fasting, 6 patients"}, "[12]": {"conditions": "SAD 1000 mg, South/Southeast/East Asian origin, 6 patients"}, "[13]": {"conditions": "SAD 1500 mg fasting, 6 patients"}}}
{"smiles": "CNc1nc(N)nc2c1ncn2[C@@H]1O[C@H](CO[P@](=O)(N[C@@H](C)C(=O)OC(C)C)Oc2ccccc2)[C@@H](O)[C@@]1(C)F", "note": "[Compound 2, isopropyl ((R)-(((2R,3R,4R,5R)-5-(2-amino-6-(methylamino)-9H-purin-9-yl)-4-fluoro-3-hydroxy-4-methyltetrahydrofuran-2-yl)methoxy)(phenoxy)phosphoryl)-L-alaninate]", "values": [{"measurement": "% of starting concentration remained after 120 min of incubation", "setting": "[1]", "value": 93.5, "unit": "%"}, {"measurement": "drug remaining at the first time point (10 min of incubation)", "setting": "[2]", "value": "no drug remaining"}, {"measurement": "% of starting concentration remained after 120 min of incubation", "setting": "[3]", "value": 98.2, "unit": "%"}, {"measurement": "pharmacokinetic ethnic sensitivity", "setting": "[4]", "value": "absence of pharmacokinetic ethnic sensitivity"}, {"measurement": "Headache, subjects reporting", "setting": "[5]; [8]", "value": 1}, {"measurement": "Nausea, subjects reporting", "setting": "[5]; [8]", "value": 1}, {"measurement": "Vomiting, subjects reporting", "setting": "[5]; [8]", "value": 1}, {"measurement": "Headache, subjects reporting", "setting": "[5]; [9]", "value": 0}, {"measurement": "Nausea, subjects reporting", "setting": "[5]; [9]", "value": 0}, {"measurement": "Vomiting, subjects reporting", "setting": "[5]; [9]", "value": 0}, {"measurement": "Headache, subjects reporting", "setting": "[5]; [10]", "value": 0}, {"measurement": "Nausea, subjects reporting", "setting": "[5]; [10]", "value": 0}, {"measurement": "Vomiting, subjects reporting", "setting": "[5]; [10]", "value": 0}, {"measurement": "Headache, subjects reporting", "setting": "[5]; SAD 250 mg fasting, 6 patients", "value": 0}, {"measurement": "Nausea, subjects reporting", "setting": "[5]; SAD 250 mg fasting, 6 patients", "value": 0}, {"measurement": "Vomiting, subjects reporting", "setting": "[5]; SAD 250 mg fasting, 6 patients", "value": 0}, {"measurement": "Headache, subjects reporting", "setting": "[5]; SAD 500 mg fasting, 7 patients", "value": 2}, {"measurement": "Nausea, subjects reporting", "setting": "[5]; SAD 500 mg fasting, 7 patients", "value": 0}, {"measurement": "Vomiting, subjects reporting", "setting": "[5]; SAD 500 mg fasting, 7 patients", "value": 0}, {"measurement": "Headache, subjects reporting", "setting": "[5]; SAD 500 mg fed, 7 patients", "value": 4}, {"measurement": "Nausea, subjects reporting", "setting": "[5]; SAD 500 mg fed, 7 patients", "value": 1}, {"measurement": "Vomiting, subjects reporting", "setting": "[5]; SAD 500 mg fed, 7 patients", "value": 0}, {"measurement": "Headache, subjects reporting", "setting": "[5]; [11]", "value": 1}, {"measurement": "Nausea, subjects reporting", "setting": "[5]; [11]", "value": 1}, {"measurement": "Vomiting, subjects reporting", "setting": "[5]; [11]", "value": 1}, {"measurement": "Headache, subjects reporting", "setting": "[5]; [12]", "value": 0}, {"measurement": "Nausea, subjects reporting", "setting": "[5]; [12]", "value": 0}, {"measurement": "Vomiting, subjects reporting", "setting": "[5]; [12]", "value": 0}, {"measurement": "Headache, subjects reporting", "setting": "[5]; [13]", "value": 2}, {"measurement": "Nausea, subjects reporting", "setting": "[5]; [13]", "value": 1}, {"measurement": "Vomiting, subjects reporting", "setting": "[5]; [13]", "value": 2}, {"measurement": "tolerability", "setting": "[5]; healthy subjects, SAD 250-1500 mg and MAD cohorts, oral", "value": "well tolerated"}, {"measurement": "serious adverse events or discontinuations due to adverse events", "setting": "[5]; healthy subjects, SAD and MAD cohorts", "value": "no serious adverse events or discontinuations due to adverse events were reported"}, {"measurement": "health scores versus vehicle control group", "setting": "[6]; Day 4 to Day 9 pi, p<0.001 by t-test", "value": "significantly better health scores"}, {"measurement": "Viremia versus vehicle only group", "setting": "[6]; Day 6 pi, 1000 mg/kg loading, 500 mg/kg BID 7 days oral, p=0.000014 by t-test", "value": "significantly lower than the vehicle only group"}, {"measurement": "weight loss versus vehicle control mice", "setting": "[6]; Days 5, 7 and 8 pi, p<0.001 by t-test", "value": "significantly reduced weight loss"}, {"measurement": "spleen viral load versus control group", "setting": "[6]; by Day 7 pi", "value": "not statistically different"}, {"measurement": "Viremia", "setting": "[6]; by Day 8 pi, virus still measurable in all surviving controls, p=0.0045", "value": "cleared in all treated animals"}, {"measurement": "survival (Kaplan-Meier) versus vehicle control group", "setting": "[6]; p=0.0004, Mantel-Cox log-rank test", "value": "significantly improved the survival"}, {"measurement": "unusual or adverse clinical signs", "setting": "[7]", "value": "no such signs noted"}]}
